The record followed here is PubChem BioAssay (NCI).

Holding throughout (experiment): NCI anticancer screen, dose series, 48 h
For assay [1], the system named is SR leukemia.
The test system of assay [2] is T-47D breast.
Assay [3] concerns CAKI-1 renal.
Assay [4] concerns NCI-H226 lung.
Assay [5] concerns UACC-257 melanoma.
In assay [6] the test system is SF-268 CNS.
Assay [7] relates to OVCAR-8 ovarian.
Assay [8] has as its system MDA-MB-435.
Assay [9] concerns SK-MEL-2 melanoma.
Assay [10] concerns NCI-H460 lung.

Each structure is given as a SMILES string. Several values for one entry are separate records, joined by “and”; a condition that tells them apart may be missing. Equal entries are not always repeated.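 How tested: cells in 96-well plates exposed to compound for 48 hours at five concentrations. Abbreviation: GI50, concentration required for 50% inhibition of growth. TGI marks complete inhibition of growth.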

As for `Cc1ccccc1C(C(=O)NC1CCCCC1)N(C(=O)Cn1ccnc1C)c1cccc(F)c1` (stereo not given), the GI50 in assay [1] was more than 100 µM; in assay [2] it was more than 58.4 µM; in assay [3] it was more than 57.4 µM; in [4], more than 87.4 µM; in assay [5], more than 100 µM; in assay [6], more than 66.5 µM. For the same compound, the GI50 in assay [7] was more than 82.6 µM; in [8] it was more than 100 µM; in assay [9], 21.3 µM; in assay [10] it was more than 100 µM. Further, the TGI in assay [1], in [2], in [3], in assay [4], in assay [5] and in [6] was more than 100 µM in each case. The TGI in assay [7] is more than 100 µM; in [8] it was more than 100 µM; in [9], 79.3 µM; in assay [10], more than 100 µM.

Take `Cc1cc(NC(=O)NC(=O)c2ccccc2NC(=O)CN)ccc1Oc1ncc(Br)cn1`: the GI50 in assay [1] was 0.0302 µM; in assay [4], 0.238 µM; in assay [6], 0.608 µM; in assay [7], 0.65 µM; in [8] it was 0.0399 µM; in assay [9], 21.2 µM. In addition, in assay [10], the GI50 is 0.405 µM. Also, the TGI in assay [1] is 55.8 µM and > 100 µM; in [2] it was 47.4 µM; in assay [3] it was 2.61 µM; in assay [5] it was 38.4 µM; in assay [6], 43.2 µM and 29.5 µM; in assay [7] it was 45.7 µM and 17.8 µM. The TGI in assay [8] is 1.78 µM and 0.494 µM; in [9], 9.7 µM and 52.9 µM; in assay [10], 44.5 µM and 11.8 µM.

As to `CNCCOC(=O)/C=C1/CCC2C(C(O)CC3C(C)(C(=O)OC)CCCC23C)C1C` (stereo not given), the GI50 in assay [1] was 0.0198 µM; in assay [2] it was 0.0294 µM; in assay [3], 0.0202 µM; in [4], 0.0191 µM; in assay [5], 0.0226 µM; in [6], less than 0.01 µM. Further, the GI50 in [7] is 0.018 µM; in assay [8], 0.0289 µM; in [9], 0.0317 µM; in [10], less than 0.01 µM. Moreover, the TGI in assay [1] was 0.0553 µM; in [2], 0.0762 µM; in assay [3], 0.053 µM; in assay [4] it was 0.0408 µM; in assay [5] it was 0.0512 µM; in [6] it was 0.02 µM. Moreover, the TGI in assay [7] was found to be 0.0331 µM; in assay [8] it was 0.0881 µM; in [9], 0.0805 µM; in assay [10], 0.019 µM.

Take `CC(C)=CC1CC(C)C2(CCC3(C)CC4C(C(=O)CC4(C)O)/C(C=O)=C\CC32)O1` (stereo not given): the TGI was determined as 0.0945 µM in assay [1]; 0.143 µM in [2]; 0.192 µM in [3]; 0.147 µM in assay [4]; 0.28 µM in [5]; 0.275 µM in [6]. The TGI in assay [7] worked out at 0.214 µM; in assay [8], 0.197 µM; in [9] it was 0.316 µM; in [10], 0.283 µM.

As for `Oc1cc(Cl)ccc1Cc1ccc(Cl)cc1O`, the GI50 in assay [1] was 10.5 µM; in assay [2], 4.91 µM; in [3], 18.2 µM; in assay [4], 24.7 µM; in assay [5], 14.7 µM; in assay [6], 9.44 µM. Further, the GI50 is 15.1 µM in [7], 5.37 µM in assay [8], 14.8 µM in [9] and 7 µM in assay [10]. Besides, the TGI in assay [1] was more than 100 µM; in assay [2], 29.3 µM; in assay [3] it was 43 µM; in assay [4], 57.8 µM; in assay [5], 36.9 µM; in assay [6], 27.7 µM. The TGI in [7] stood at 48.8 µM; in [8], 24.5 µM; in assay [9] it was 38.8 µM; in [10], 19.4 µM.

`CCC(=O)c1ccc2c(c1)N(CCCN1CCN(CCO)CC1)c1ccccc1S2`: the GI50 was 11.7 µM in assay [1]; 14 µM in assay [2]; 13.4 µM in assay [3]; 17.6 µM in assay [4]; 2.86 µM in assay [5]; 15.4 µM in [6]. Also, the GI50 was 16.9 µM in assay [7], 3.24 µM in assay [8], 17.7 µM in assay [9] and 17.6 µM in [10]. Also, the TGI was found to be 28.7 µM in [1]; 31.5 µM in [2]; 27.5 µM in assay [3]; 33.8 µM in [4]; 7.97 µM in assay [5]; 29.5 µM in assay [6]. Moreover, the TGI in assay [7] is 32.7 µM; in assay [8] it was 12.3 µM; in assay [9], 33.4 µM; in [10] it was 33.5 µM.

Take `COc1cc(-c2n/c(=C\c3c(O)[nH]c4ccccc34)cc3c2=Nc2ccccc2-3)cc(OC)c1OC`: the GI50 in [1] is 0.692 µM; in assay [2], 1.14 µM; in assay [4], 4.23 µM; in [5], 1.73 µM; in assay [6] it was 1.39 µM; in assay [7], 2.53 µM. Further, the GI50 is 1.68 µM in assay [8], 1.41 µM in assay [9] and 0.334 µM in [10]. For the same compound, the TGI is more than 29.1 µM in assay [1]; more than 22.5 µM in assay [2]; more than 100 µM in assay [3]; more than 100 µM in assay [4]; more than 100 µM in assay [5]; more than 100 µM in assay [6]. In addition, the TGI was more than 100 µM in [7], 6.48 µM in [8], 29.6 µM in assay [9] and 1.76 µM in assay [10].
